{
  "source": "paper PMC7175203",
  "about": "“PIRT the TRP Channel Regulating Protein Binds Calmodulin and Cholesterol-Like Ligands” (Biomolecules, 2020)",
  "molecules": {"B1": {"name": "Oxytocin (peptide, UniProt P01178 20-28, looked up)", "peptide": "CYIQNCPLG-NH2", "modifications": "disulfide 1-6", "notes": "oxytocin, peptide hormone, cyclic nonapeptide cut from the oxytocin-neurophysin 1 precursor"}},
  "key": {"[1]": {"molecular_target": "T1, PIRT (Phosphoinositide-interacting regulator of TRP) (Homo sapiens, UniProt P0C851)", "T1 sequence (P0C851 whole entry)": "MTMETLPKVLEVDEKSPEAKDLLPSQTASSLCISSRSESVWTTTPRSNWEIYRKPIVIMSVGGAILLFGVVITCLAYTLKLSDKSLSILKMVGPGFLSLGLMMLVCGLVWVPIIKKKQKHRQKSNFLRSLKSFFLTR", "experiment": "microscale thermophoresis", "format": "binding"}, "[2]": {"molecular_target": "T1, PIRT (Phosphoinositide-interacting regulator of TRP)", "experiment": "microscale thermophoresis; […]-PIRT HSQC NMR chemical shift perturbation", "format": "binding"}, "Calmodulin (holo)": {"molecular_target": "Calmodulin (holo) (UniProt P0DP23)", "experiment": "tryptophan fluorescence", "details": "cited from earlier work"}, "[3]": {"molecular_target": "T2, Human PIRT (phosphoinositide-interacting regulator of TRP), fluorescently labeled for MST (human, UniProt P0C851 1-137, fluorescently labeled (dye and site not stated; by the protocol of ref. 24))", "T2 construct": "Measured in 0.1% DPC micelles; The His tag is named only for the pull-down; also called MST labeled PIRT; source: purified", "T2 sequence (P0C851 whole entry)": "as above", "experiment": "MST; 200 nM fluorescently labeled PIRT, peptide hormone titrated; 0.1% DPC (w/v), 50 mM HEPES, pH 7.0; room temperature; triplicate", "details": "both partners purified"}},
  "note": "Bridge positions count the residues as written; N and C are the ends. Ends that are not written are not given here.",
  "data": [
    {"molecule": "C=C1CC[C@H](O)C/C1=C/C=C1\\CCC[C@]2(C)[C@@H]([C@H](C)CCCC(C)C)CC[C@@H]12", "note": "[Cholecalciferol]", "values": [
      {"measurement": "Kd", "setting": "[1]", "result": 2100, "unit": "µM"}
    ]},
    {"molecule": "C[C@]12CCC(=O)C=C1CC[C@@H]1[C@@H]2[C@@H](O)C[C@@]2(C)[C@H]1CC[C@]2(O)C(=O)CO", "note": "[Cortisol]", "values": [
      {"measurement": "Kd", "setting": "[1]; read-out: Kd", "result": 790, "unit": "µM"}
    ]},
    {"molecule": "CC(C)CCC[C@@H](C)[C@H]1CC[C@H]2[C@@H]3CC=C4C[C@@H](OC(=O)CCC(=O)O)CC[C@]4(C)[C@H]3CC[C@]12C", "note": "[cholesteryl-hemisuccinate]", "values": [
      {"measurement": "Kd", "setting": "[1]; read-out: Kd", "result": 103, "unit": "µM"}
    ]},
    {"molecule": "C[C@]12CC[C@@H]3c4ccc(O)cc4CC[C@H]3[C@@H]1CC[C@@H]2O", "note": "[β-Estradiol]", "values": [
      {"measurement": "Kd", "setting": "[2]", "result": 800, "unit": "µM"}
    ]},
    {"molecule": "TRPV1 distal C-terminus (from UniProt O35433)", "values": [
      {"measurement": "Kd", "setting": "Calmodulin (holo)", "result": 0.054, "unit": "µM"}
    ]},
    {"molecule": "B1", "values": [
      {"measurement": "Kd", "setting": "[3]", "result": 7, "unit": "µM"}
    ]}
  ]
}
